One compound from ChEMBL document CHEMBL1141555, “Synthesis and biological activity of piperazine and diazepane amides that are histamine H3 antagonists and serotonin reuptake inhibitors” (Bioorg Med Chem Lett, 2008) can be followed below.

Holding throughout (type): ADME, organism-based
Data set [1] can be described thus: Volume of distribution at steady state in rat. Conditions: in vivo, read-out: Vdss.
A short description of data set [2]: Bioavailability in rat. Particulars: in vivo.
The nature of data set [3]: Drug level in rat plasma at 10 mg/kg, po. Details: dose 10 mg/kg, route oral.
Data set [4] is described as follows: Half life in iv dosed rat. Particulars: in vivo.
Data set [5] in a line: Drug level in rat brain at 10 mg/kg, po. The arrangement: dose 10 mg/kg, route oral.
Data set [6] in a line: Clearance in rat. Conditions: in vivo.

Where only a bound is given, the exact number is not on record here.

By bioavailability is commonly meant dose-corrected exposure relative to a reference, in per cent. A low value points to poor availability. As usually defined, the Cmax is the maximum level reached in the sampled fluid or tissue. What is called half-life is how long it takes for the measured level to halve. Read a low half-life as rapid decline. As usually defined, the clearance is the rate of elimination divided by the concentration. Turning to `CNCc1cc(C(=O)N2CCN(C3CC3)CC2)ccc1Oc1ccc(Cl)c(Cl)c1`, the Vd in data set [1] came out at 13 L/kg. Besides, the bioavailability in data set [2] came to 93%. Moreover, the Cmax in data set [3] and in data set [5] was above 1000 nM in each case. In data set [4], the half-life was 16.1 h. The clearance in data set [6] came to 10.2 mL/min/kg.
